These results are taken from patent US20080206287A1, “Use of cyclosporin A to sensitize resistant cancer cells to death receptor ligands” (priority 2006, published 2008).

By EC50 is commonly meant the concentration that produces a half-maximal response.

For test [1], the system named is FLIP. The settings on record: Kim et al. 2002; cited from earlier work.
In test [2] the test system is PPC-1 cells. The settings on record: positive control, Kim et al. 2002; cited from earlier work.
The subject of test [3] is PPC-1 cells. The experiment in a line: Extrinsic (CH-11, TRAIL) versus intrinsic (VP-16, STS) pathway stimuli, MTT. It counts as cell-based. The following applies: MTT 24 hours. The text has this:
Identification of small molecules that specifically sensitize to extrinsic pathway. The nine compounds identified using anti-FAS antibody screening theoretically could non-specifically sensitize tumor cells to apoptotic stimuli or they could be selective for the extrinsic pathway. To distinguish between these two possibilities, the effects of compounds on apoptosis induced by extrinsic pathway stimuli (e.g., CH-11 antibody; TRAIL) were compared to the effects on the intrinsic pathway stimuli (e.g., etoposide [VP16]; staurosporine [STS]). Accordingly, PPC-1 cells were treated with various concentrations of compounds with or without CH-11, TRAIL, VP-16, or STS, and 24 hours later, cell viability was measured by MTT assays.

Test [4] deals with FLIP. The experiment in a line: FLIP protein immunoblot. It counts as cell-based, human. As to the method:
Immunoblot analysis. Protein extracts were obtained by washing cells with phosphate-buffered saline (PBS) [pH 7.4] and suspending the cells in lysis buffer [10 mM Tris (pH 7.4), 150 mM NaCl, 0.1% Triton X-100, 0.5% sodium deoxycholate, and 5 mM EDTA] containing protease inhibitors (Complete tablets; Roche, Indianapolis, Ind.). Immunoblot assays were performed as described in Carter et al. (Blood 105:4043-4050, 2005). Briefly, equal amounts of protein as determined by a Bradford assay (Bradford, Anal. Biochem. 72:248-54, 1976) were subjected to SDS-PAGE (4-20% gradient gels from ISC BioExpress, Kaysville, Utah), followed by transfer to nitrocellulose membranes. Membranes were incubated with mouse monoclonal anti-human FLIP (NF6 clone) (1:500 v/v) (Alexis, San Diego, Calif.), 1:1,000 (v/v) anti-aspase-8 clone 5F7 (Upstate) and mouse monoclonal anti-tubulin (1:2000 v/v) (Sigma Inc). Secondary antibodies consisted of horseradish peroxidase-conjugated goat anti-rabbit IgG or goat anti-mouse IgG (Bio-Rad, Hercules, Calif.). Detection was performed by the enhanced chemiluminescence method (Pierce, Rockford, Ill.).
Effects of sensitizing compounds on FLIP protein. Since FAS-sensitizing compounds 6094911 and 5809354 modulate the extrinsic pathway downstream of TNF-family death receptors but upstream of effector caspases, the effects of those compounds on expression of FLIP, an intracellular antiapoptotic protein that binds caspases-8 and -10 and is capable of suppressing death receptor signaling at a proximal point within the extrinsic pathway, was examined. For these experiments, PPC-1 cells were treated with sensitizing compounds in the presence or absence of CH-11 antibody, then cell lysates were prepared 24 hours later, and analyzed by immunoblotting for FLIP.
The levels of the short isoform of FLIP were less than 5% of total FLIP protein as measured by immunoblotting and quantitative densitometry. Therefore, given the very low levels of the short isoform, the analysis was limited to the effects of the compounds on the long isoform of FLIP.

The subject of test [5] is PPC-1 cells. The experiment in a line: PPC-1 cell viability (MTT) with or without CH-11 anti-FAS antibody. It counts as cell-based. The following applies: Homo sapiens, PPC-1, read-out: EC50 as a FAS-sensitizer in PPC1 cells. Here is the method:
High throughput screening. Screens were performed using a fully integrated, programmable robotic liquid handling system (Biomek® FX, Beckman-Coulter Inc., Fullerton, Calif.), with integrated plate reader (LJL analyst HT 96-384, Sunnyvale, Calif.) and environmentally controlled plate carousel set at 37° C. and 5% CO2:95% air. PPC-1 cells (1×10^4) were seeded overnight into 96 well, flat-bottom plates (Costar, Cambridge, Mass.) in 100 μL of medium containing 2.5% FCS. The next day, aliquots from the 50,000 compound Diversa library were added at a final concentration of 7.5 μg/mL (about 25 μM) in a final concentration of 0.5% (v:v) dimethylsulfoxide (DMSO). CH-11 antibody (100 ng/mL) was then added, and the cells were incubated for 24 hours before assessing cell viability by a 3-(4,5-Dimethylthiazol-2-yl)-2,5-diphenyltetrazolium Bromide (MTT) dye reduction assay (Sigma).
(§1) Cell death assays. Cell viability was measured by MTT and MTS assays, essentially as described in Schimmer et al. (Cancer Cell 5:25-35, 2004). Absorbance readings were plotted against a standard curve to derive the corresponding cell number, and cell viability was expressed as a percentage relative to untreated cells. Apoptosis was measured by flow cytometric analysis of Annexin V surface expression after staining cells with FITC-anti-Annexin V and propidium iodide (PI) (Biovision, Mountain View, Calif.), as described in Pedersen et al. (Blood 100:2965-72, 2002).
Statistics. Cytotoxicity induced by compounds used in combination with conventional agents (e.g., CH-11, TRAIL, VP-16 and staurosporine) was evaluated for evidence of synergy toxicity by comparing the slopes of the dose-response curves. If the combination of the potential sensitizing compound with the conventional agent increased the slope of the dose-response curve compared to the slopes of either the sensitizer or the conventional agent alone, then the interaction was considered synergistic. […] Statistical significance was defined as a p<0.01, using two-sided tests. Synergy was confirmed by performing multiple drug dose-effect calculations using the Median Effect methods as described in Chou (“The Median-Effect Principle and the Combination Index for Quantitation of Synergism and Antagonism.” In: D. C. Rideout and T. C. Chou (eds.), Synergism and Antagonism in Chemotherapy, pp. 61-102: Academic Press, Inc., 1991).
Identification of small molecule FAS sensitizers. Resistance to death receptor ligands may permit malignant cells to escape immune surveillance and limit the clinical efficacy of recombinant death receptor ligands such as TRAIL. To identify small molecules that restore sensitivity to death receptor ligands, a cell-based high throughput screen was performed using the FAS and TRAIL-resistant prostate cancer cell line PPC-1 and a commercially available 50,000 compound library. The screens were performed in 96 well plates, to which compounds were added at 7.5 μg/ml (about 25 μM), followed by agonistic anti-FAS monoclonal antibody CH-11 (100 ng/mL). Cell viability was measured 24 hours later by MTT assay. […] The coefficient of variation (CV) for PPC-1 cells treated with CH-11 alone was determined to be 5%, based on 90 replicate determinations. A 50% decrease in cell viability was used as a cut-off for scoring hits.
From the primary screen of 50,000 compounds, 313 reproducible hits were obtained. To determine whether any of the 313 compounds were toxic molecules as opposed to FAS-sensitizers, the 313 compounds were evaluated in secondary screens where PPC-1 cells were treated with increasing concentrations of the compounds in the presence or absence of CH-11 antibody. Through these secondary screens, nine sensitizers were identified that increased CH-11-mediated killing above the cell death produced by treatment of the cells with the compound alone (Table 1). […]

Test [6] concerns PPC-1 cells. The experiment in a line: Annexin V apoptosis with CH-11, sensitizers and caspase inhibitors. The following applies: CH-11 and sensitizers such as 6094911, 5809354, 5569100, 12 hours. The format is cell-based. As to the method:
as §1
Caspase-dependent induction of apoptosis by combination treatment with CH-11 and FAS-sensitizing compounds. To further assess the mechanism of the 8 compounds that selectively modulated tumor sensitivity to extrinsic pathway stimuli, the effects of […]-Val-Ala-Asp-fluoromethylketone (zVAD-fmk), a broad-spectrum irreversible inhibitor of caspase-family proteases (Enzyme Systems, Dublin, Calif.) was tested. Accordingly, PPC-1 cells were treated with CH-11 and sensitizers such as 6094911, 5809354, and 5569100 with and without zVAD-fmk (100 μM) for 12 hours. Apoptosis was then measured by Annexin V staining.

“Also recorded” adds a separate entry of the source. Residues, ends and D or L forms follow the SMILES beside them. *: point of attachment. Cbz = O=C(OCc1ccccc1)*; CH2F = FC*

On to `CC1(C)CC[C@]2(C(=O)O)CC[C@]3(C)[C@H](C(=O)C=C4[C@@]5(C)C=C(C#N)C(=O)C(C)(C)[C@@H]5CC[C@]43C)[C@@H]2C1` [CDDO, 2-cyano-3,12-dioxooleana-1,9-dien-28-oic acid], for which the FLIP protein levels entry in the test with FLIP [1] is given as “reduce FLIP protein levels; also recorded: reduces FLIP expression”. Besides, the “sensitization of PPC-1 cells to TNF-family death receptors and ligands” value in the test with PPC-1 cells [2] was “sensitize PPC-1 cells to TNF-family death receptors and ligands”.

With `C[n+]1ccn2c3c(c4cc(C5CCCCC5)ccc42)CCCc31.[I-]` [compound 5362611, 8-Cyclohexyl-3-methyl-5,6-dihydro-4H-pyrazino[3,2,1-jk]carbazol-3-ium; iodide], the “sensitization to extrinsic (CH-11, TRAIL) and intrinsic (VP-16, STS) pathway stimuli” value in the test with PPC-1 cells [3] is “sensitized to both the death receptor (extrinsic) and mitochondrial pathway (intrinsic) stimuli”.

As for `Cn1c(=N)n(CC(=O)c2cc(C(C)(C)C)c(O)c(C(C)(C)C)c2)c2ccccc21` [compound 5541203, 1-(3,5-Di-tert-butyl-4-hydroxy-phenyl)-2-(2-imino-3-methyl-2,3-dihydro-benzoimidazol-1-yl)-ethanone], the “levels of FLIP protein (long isoform)” value with FLIP [4] (PPC-1 cells, with or without CH-11, 24 hours, immunoblot) is “had little effect”. The EC50 in the test on PPC-1 cells [5] is 25.7 µM.

Regarding `COC(=O)C[C@H](NC(=O)[C@H](C)NC(=O)[C@@H](NC(=O)OCc1ccccc1)C(C)C)C(=O)CF` [zVAD-fmk, reference compound] (Cbz-Val-Ala-Asp(OMe)-CH2F), the “effect of caspase inhibitor pre-treatment on reductions in FLIP protein” value in the test with FLIP [4] (pre-treatment before 5809354 or 5569100) is listed as “did not prevent reductions in FLIP protein”. For the same molecule, in the test with PPC-1 cells [6], the “effect of caspase inhibitor on apoptosis by CH-11 plus sensitizers” value was “blocked sensitization to CH-11”.
